Reference: patent US10231985B2, “Compounds and compositions comprising such compounds for the prevention or treatment of dyslipidaemias” (CENTRE NATIONAL DE LA RECHERCHE SCIENTIFIQUE, priority 2013, dated 2019)

Test system: BRIN-BD11 pancreatic β-cells
Test: Cell viability of palmitic acid-lipointoxicated pancreatic β-cells (propidium iodide, flow cytometry)
Format: cell-based, rat
Conditions: BRIN-BD11, 200 μM palmitic acid
Experimental: Pancreatic β-cells, BRIN-BD11, were grown under control conditions or in the presence of an exogenous source of saturated fatty acid (200 μM palmitic acid), as described by Dhayal & Morgan (2011), in order to generate lipointoxication conditions, with or without the addition of OAG. A) The proportion of dead cells was estimated in the absence (control) or presence of palmitic acid, for increasing concentrations of OAG. B) eIF2α phosphorylation levels were also analyzed under the various conditions by Western blot, in the presence or absence (Ø) of OAG, and were normalized to total eIF2α.
The lipid species are prepared in ethanol before being complexed with bovine serum albumin (BSA, first depleted of fatty acids) by incubation for 1 hour at 37° C. The palmitic acid stock solution is obtained by adding one volume of ethanol before the whole is heated to 70° C. for homogenization. OAG and LPA solutions are prepared in 100% ethanol at room temperature. For the incubations of mammalian cells, the final BSA and ethanol concentrations in the culture medium are kept at 1% and 0.5% (w/v), respectively.
The rat pancreatic β-cell line (BRIN-BD11) is grown in complete RPMI-1640 medium, containing 11 mM glucose and supplemented with 10% (v/v) fetal calf serum (FCS), 2 mM L-glutamine, 100 U/ml penicillin and 100 μg/ml streptomycin. For each experiment, the cells are first seeded at a density of 0.5×10^5 cells/ml in 6-well plates for 24 hours. Thereafter, the complete medium is replaced by an equivalent lacking FCS but containing the lipid reagents of interest, at the desired concentrations, complexed with BSA. Under the control conditions, identical amounts of BSA and ethanol are then used. […] After incubation on ice for 10 minutes, the samples thus obtained are analyzed by flow cytometry. A Beckman Coulter EPICS XL MCL is used for the quantification, an FL3 channel is used to detect the emissions of the PI intercalated in the DNA, and the analysis is carried out using the EXPO32 ADC software (Applied Cytometry Systems, V 1.1 build 207).

CCCCCCCC/C=C\CCCCCCCC(=O)OC[C@H](CO)OC(C)=O [OAG, 1-oleoyl-2-acetyl-sn-glycerol]
Apoptosis / proportion of dead cells of pancreatic β-cells: prevents apoptosis
